Patent publication US9150567B2, “Substituted tetrazol-1-yl-phenoxymethyl-thiazol-2-yl-piperidinyl-pyrimidine salts” (CYMABAY THERAPEUTICS, INC., priority 2009, dated 2015)
Values joined by “and” are separate entries in the source; they are usually repeats but may differ in a detail not shown here. Equal entries are not always repeated. Structures can show the parent of a compound that is named as a salt. Where two headings read alike, the source gives them in different places.

Experiments:
[1] = Overnight / elevated RH stress of the crystalline salts; format: physicochemical; details: overnight / elevated relative humidity stress
[2] = Systemic exposure and pharmacokinetics after single oral gavage dose of 200 mg/kg in fasted male SD rats; format: in vivo, Sprague Dawley (SD) rats; details: for Fold difference in plasma concentration compared to micronized free-base form: 30 hours post-dose; for Fold difference in plasma concentration compared to micronized free-base form / Increase of systemic drug exposure in AUC0-t compared with micro MBX-2982 (free base): male SD rats; for Increase of systemic drug exposure in AUC0-t compared with micro MBX-2982 (free base): equivalent amounts
Protocol: Two studies were conducted in order to compare the systemic exposure and pharmacokinetics (PK) of microcrystalline MBX-2982 and salt forms of MBX-2982 in fasted male Sprague Dawley (SD) rats following single oral gavage (PO) doses of 200 mg/kg. Four salt foms of MBX-2982 were investigate in the studies. The tested salts were HCl Form I, HCl salt Form II, mesylate salt and the tosylate salt.
Preparation of samples was performed by solvent precipitation of plasma proteins in a 1 mL/well 96-well plate. Standards were prepared by spiking 10 μL of blank plasma with 10 μL of standard solution (acetonitrile containing MBX-2982 at 0.01, 0.02, 0.05, 0.1, 0.2, 0.5, 1, 2, 5, 10, 20, 50 and 100 μg/mL) and 300 μL of 0.1% formic acid in acetonitrile containing 0.2 μg/mL internal standard. Plasma samples were prepared by adding 10 μL of plasma sample, 10 μL of acetonitrile, and 300 μL of 0.2 μg/mL internal standard in 0.1% formic acid in acetonitrile. After addition of the organic solvents, all samples were vortexed briefly and centrifuged at 3600 rpm for 10 minutes. Some of the samples were diluted 1.3 to 2-fold with blank plasma. An aliquot of the supernatant (25 μL) was transfer to a 1 mL/well 96-well plate and mixed with 200 μL water/ACN (50/50, v/v) and injected into the HPLC.
The suspensions for microcrystalline MBX-2982 (free base) and salt forms of MBX-2982 were prepared in 1% carboxymethylcellulose and 2% tween 80 in water (w/w/v).
Five groups of animals were given microcrystalline and salt forms suspension doses of MBX-2982 orally at 200 mg/kg, respectively. Food was withheld the night before dose and returned nine hours after dosing. Blood samples were collected at 0.25, 0.5, 1, 2, 4, 6, 9, 24, 30 and 48 h post dose. MBX-2982 plasma concentration from these samples was analyzed by a non-validated high performance liquid chromatography in conjunction with mass spectrometry (LC-MS/MS) method.
Plasma concentration-time data for individual animals were analyzed using WinNonlin software (Professional, version 5.0.1; Pharsight Corp.). A non-compartmental model (model 200) was used. Peak area ratios of MBX-2982 to internal standard and concentration were fitted to a quadratic equation (Calibration Curve) with 1/x weighting using a quadratic regression program in Analyst version 1.4.2 (Applied Biosystem Inc). The equations were then used to interpolate the concentrations of MBX-2982 in samples from peak area to internal standard ratio.
The following pharmacokinetic parameters were calculated: • 1) Cmax: Maximum (peak) plasma concentration • 2) Tmax: Time at which Cmax occurred • 3) t1/2: Terminal phase half-life • 4) AUC0-t: Area under the concentration-time curve from time 0 to last measurable concentration • 5) AUC0-inf: Area under the concentration-time curve from time 0 extrapolated to infinity

[3] = PO 200 mg/kg, listed as HCl form II, hydrochloride
[4] = fasted male SD rats, single PO dose 200 mg/kg, mean ± SD, hydrochloride
[5] = 0.5 h post dose, fasted male SD rats, PO 200 mg/kg, mean ± SD
[6] = 1 h post dose, fasted male SD rats, PO 200 mg/kg, mean ± SD
[7] = 2 h post dose, fasted male SD rats, PO 200 mg/kg, mean ± SD
[8] = 24 h post dose, fasted male SD rats, PO 200 mg/kg, mean ± SD
[9] = 30 h post dose, fasted male SD rats, PO 200 mg/kg, mean ± SD
[10] = 48 h post dose, fasted male SD rats, PO 200 mg/kg, mean ± SD
[11] = fasted male SD rats, single PO dose 200 mg/kg, mean ± SD

CCc1cnc(N2CCC(c3nc(COc4ccc(-n5cnnn5)cc4)cs3)CC2)nc1 [HBr salt, 5-ethyl-2-{4-[4-(4-tetrazol-1-yl-phenoxymethyl)-thiazol-2-yl]-piperidin-1-yl}-pyrimidine]
Appearance of the material after RH stress [1]: remained a free flowing powder

CCc1cnc(N2CCC(c3nc(COc4ccc(-n5cnnn5)cc4)cs3)CC2)nc1.Cl [HCl Salt Form II, 5-ethyl-2-{4-[4-(4-tetrazol-1-yl-phenoxymethyl)-thiazol-2-yl]-piperidin-1-yl}-pyrimidine hydrochloride]
Mean plasma concentration of MBX-2982 ([2]; 0.5 h post dose, fasted male SD rats, PO 200 mg/kg, mean ± SD, hydrochloride): 8060 ± 1610 ng/mL | Mean plasma concentration of MBX-2982 ([2]; 1 h post dose, fasted male SD rats, PO 200 mg/kg, mean ± SD, hydrochloride): 16300 ± 2770 ng/mL | Mean plasma concentration of MBX-2982 ([2]; 2 h post dose, fasted male SD rats, PO 200 mg/kg, mean ± SD, hydrochloride): 23700 ± 4220 ng/mL | Mean plasma concentration of MBX-2982 ([2]; 4 h post dose, fasted male SD rats, PO 200 mg/kg, mean ± SD, hydrochloride): 29200 ± 3710 ng/mL | Mean plasma concentration of MBX-2982 ([2]; 6 h post dose, fasted male SD rats, PO 200 mg/kg, mean ± SD, hydrochloride): 29100 ± 8130 ng/mL | Mean plasma concentration of MBX-2982 ([2]; 9 h post dose, fasted male SD rats, PO 200 mg/kg, mean ± SD, hydrochloride): 23200 ± 5700 ng/mL | Mean plasma concentration of MBX-2982 ([2]; 24 h post dose, fasted male SD rats, PO 200 mg/kg, mean ± SD, hydrochloride): 12020 ± 9330 ng/mL | Mean plasma concentration of MBX-2982 ([2]; 24 h post dose, fasted male SD rats, PO 200 mg/kg, mean ± SD, listed as HCl form II, hydrochloride): 12020 ng/mL | Fold difference in plasma concentration compared to micronized free-base form [2, 3]: 186 fold | Mean plasma concentration of MBX-2982 ([2]; 30 h post dose, fasted male SD rats, PO 200 mg/kg, mean ± SD, hydrochloride): 14900 ± 13200 ng/mL | Mean plasma concentration of MBX-2982 ([2]; 30 h post dose, fasted male SD rats, PO 200 mg/kg, mean ± SD, listed as HCl form II, hydrochloride): 14900 ng/mL | Mean plasma concentration of MBX-2982 ([2]; 48 h post dose, fasted male SD rats, PO 200 mg/kg, mean ± SD, hydrochloride): 32.5 ng/mL | AUC0-24 [2, 4]: 482 ± 69.4 µg·h/mL | AUC0-inf [2, 4]: 469 µg·h/mL | AUC(0-t) [2, 4]: 679 ± 208 µg·h/mL | Cmax [2, 4]: 31800 ± 5050 ng/mL | Tmax [2, 4]: 11.5 ± 12.4 h | t1/2 [2, 4]: 2.09 h | Increase of systemic drug exposure in AUC0-t compared with micro MBX-2982 (free base) [2, 3]: 2.9 fold

CCc1cnc(N2CCC(c3nc(COc4ccc(-n5cnnn5)cc4)cs3)CC2)nc1 [MBX-2982, 5-ethyl-2-{4-[4-(4-tetrazol-1-yl-phenoxymethyl)-thiazol-2-yl]-piperidin-1-yl}-pyrimidine]
Mean plasma concentration of MBX-2982 [2, 5]: 3890 ± 950 ng/mL | Mean plasma concentration of MBX-2982 [2, 6]: 6700 ± 1270 ng/mL | Mean plasma concentration of MBX-2982 [2, 7]: 11600 ± 1610 ng/mL | Mean plasma concentration of MBX-2982 [2, 8]: 260 ng/mL and 260 ± 280 ng/mL | Mean plasma concentration of MBX-2982 [2, 9]: 80 ng/mL and 80 ± 60 ng/mL | Mean plasma concentration of MBX-2982 [2, 10]: 160 ± 300 ng/mL | concentration at 4 h ([2]; male, Sprague-Dawley, rat, plasma, po, 4 h post dose, fasted male SD rats, PO 200 mg/kg, mean ± SD, read-out: Mean plasma concentration of MBX-2982): 15800 ± 3740 ng/mL | concentration at 6 h ([2]; male, Sprague-Dawley, rat, plasma, po, 6 h post dose, fasted male SD rats, PO 200 mg/kg, mean ± SD, read-out: Mean plasma concentration of MBX-2982): 15900 ± 4940 ng/mL | concentration at 9 h ([2]; male, Sprague-Dawley, rat, plasma, po, 9 h post dose, fasted male SD rats, PO 200 mg/kg, mean ± SD, read-out: Mean plasma concentration of MBX-2982): 15000 ± 5900 ng/mL | half-life ([2]; male, Sprague-Dawley, rat, plasma, po, fasted male SD rats, single PO dose 200 mg/kg, mean ± SD): 3.53 ± 0.7 h | AUC(0-t) ([2]; male, Sprague-Dawley, rat, plasma, po, fasted male SD rats, single PO dose 200 mg/kg, mean ± SD, read-out: AUC0-24): 233 ± 64.8 µg·h/mL | AUC(0-t) ([2]; male, Sprague-Dawley, rat, plasma, po, fasted male SD rats, single PO dose 200 mg/kg, mean ± SD, read-out: AUC0-t): 236 ± 64.6 µg·h/mL | Cmax ([2]; male, Sprague-Dawley, rat, plasma, po, fasted male SD rats, single PO dose 200 mg/kg, mean ± SD, read-out: Cmax): 17400 ± 4190 ng/mL | Tmax ([2]; male, Sprague-Dawley, rat, plasma, po, fasted male SD rats, single PO dose 200 mg/kg, mean ± SD, read-out: Tmax): 5.88 ± 1.55 h

CCc1cnc(N2CCC(c3nc(COc4ccc(-n5cnnn5)cc4)cs3)CC2)nc1 [Mesylate Salt, 5-ethyl-2-{4-[4-(4-tetrazol-1-yl-phenoxymethyl)-thiazol-2-yl]-piperidin-1-yl}-pyrimidine]
Mean plasma concentration of MBX-2982 [2, 5]: 8520 ± 975 ng/mL | Mean plasma concentration of MBX-2982 [2, 6]: 12200 ± 839 ng/mL | Mean plasma concentration of MBX-2982 [2, 7]: 18800 ± 904 ng/mL | Mean plasma concentration of MBX-2982 ([2]; 4 h post dose, fasted male SD rats, PO 200 mg/kg, mean ± SD): 26700 ± 4390 ng/mL | Mean plasma concentration of MBX-2982 ([2]; 6 h post dose, fasted male SD rats, PO 200 mg/kg, mean ± SD): 21800 ± 6480 ng/mL | Mean plasma concentration of MBX-2982 ([2]; 9 h post dose, fasted male SD rats, PO 200 mg/kg, mean ± SD): 18000 ± 5180 ng/mL | Mean plasma concentration of MBX-2982 [2, 8]: 476 ± 344 ng/mL | Mean plasma concentration of MBX-2982 ([2]; 24 h post dose, fasted male SD rats, PO 200 mg/kg, mean ± SD, listed as mesylate): 476 ng/mL | Fold difference in plasma concentration compared to micronized free-base form ([2]; PO 200 mg/kg): 7 fold | Mean plasma concentration of MBX-2982 [2, 9]: 574 ± 641 ng/mL | Mean plasma concentration of MBX-2982 ([2]; 30 h post dose, fasted male SD rats, PO 200 mg/kg, mean ± SD, listed as mesylate): 574 ng/mL | Mean plasma concentration of MBX-2982 [2, 10]: 82 ± 82 ng/mL | AUC0-24 [2, 11]: 314 ± 65.7 µg·h/mL | AUC0-inf [2, 11]: 323 ± 62.0 µg·h/mL | AUC(0-t) [2, 11]: 322 ± 63.6 µg·h/mL | Cmax [2, 11]: 26700 ± 4460 ng/mL | Tmax [2, 11]: 4.50 ± 1.00 h | t1/2 [2, 11]: 4.11 ± 1.29 h | Increase of systemic drug exposure in AUC0-t compared with micro MBX-2982 (free base) ([2]; PO 200 mg/kg): 1.4 fold | Appearance of the material after RH stress [1]: remained a free flowing powder

CCc1cnc(N2CCC(c3nc(COc4ccc(-n5cnnn5)cc4)cs3)CC2)nc1 [besylate salt, 5-ethyl-2-{4-[4-(4-tetrazol-1-yl-phenoxymethyl)-thiazol-2-yl]-piperidin-1-yl}-pyrimidine]
Appearance of the material after RH stress [1]: remained a free-flowing powder

CCc1cnc(N2CCC(c3nc(COc4ccc(-n5cnnn5)cc4)cs3)CC2)nc1 [camsylate salt, 5-ethyl-2-{4-[4-(4-tetrazol-1-yl-phenoxymethyl)-thiazol-2-yl]-piperidin-1-yl}-pyrimidine]
Appearance of the material after RH stress [1]: remained a free flowing powder

CCc1cnc(N2CCC(c3nc(COc4ccc(-n5cnnn5)cc4)cs3)CC2)nc1 [esylate salt, 5-ethyl-2-{4-[4-(4-tetrazol-1-yl-phenoxymethyl)-thiazol-2-yl]-piperidin-1-yl}-pyrimidine]
Appearance of the material after RH stress [1]: remained a free flowing powder

CCc1cnc(N2CCC(c3nc(COc4ccc(-n5cnnn5)cc4)cs3)CC2)nc1 [sulfate salt, 5-ethyl-2-{4-[4-(4-tetrazol-1-yl-phenoxymethyl)-thiazol-2-yl]-piperidin-1-yl}-pyrimidine]
Appearance of the material after RH stress [1]: turned tacky
